Data from ChEMBL document CHEMBL4177629, “Synthesis, anticancer, structural, and computational docking studies of 3-benzylchroman-4-one derivatives” (Bioorg Med Chem Lett, 2017).

Columns and labels:
HeLa = test: Cytotoxicity against human HeLa cells assessed as reduction in cell viability after 24 hrs by MTT assay; format: functional, cell-based
Vero = test: Cytotoxicity against African green monkey Vero cells assessed as reduction in cell viability after 24 hrs by MTT assay; format: cell-based; conditions: Chlorocebus sabaeus
BT-549 = test: Cytotoxicity against human BT549 cells assessed as reduction in cell viability after 24 hrs by MTT assay; format: functional, cell-based; conditions: BT-549, 24 h
[1] = Inhibition of glutathione S-transferase (unknown origin); design: species or system Homo sapiens
SK-MEL-2 = test: Cytotoxicity against human SK-MEL-2 cells by SRB assay; format: functional, cell-based
Lu1 = test: Cytotoxicity against human Lu1 cells by SRB assay; format: functional, cell-based
KB = test: Cytotoxicity against human KB cells by SRB assay; format: functional, cell-based

Row | IC50 [1] | Structure (SMILES) | IC50 (HeLa) | IC50 (Vero) | IC50 (BT-549) | IC50 (SK-MEL-2) | IC50 (Lu1) | IC50 (KB)
1 |  | COc1ccc2c(c1)OCC(Cc1ccc(OC)c(O)c1)C2=O (stereo not given) | 50.1 µM | > 200 µM | 30.6 µM |  |  | 
2 |  | O=C1c2ccccc2OCC1Cc1ccc(O)cc1 (stereo not given) | 42.8 µM | > 200 µM | 20.1 µM |  |  | 
3 |  | O=C1c2ccccc2OCC1Cc1ccc(Cl)cc1 (stereo not given) | 61.9 µM | > 200 µM | 69.3 µM |  |  | 
4 |  | Cc1ccc(CC2COc3ccccc3C2=O)cc1 (stereo not given) | 48.9 µM | > 200 µM | 42.2 µM |  |  | 
5 |  | Cc1ccc2c(c1)OCC(Cc1ccc(O)cc1)C2=O (stereo not given) | 43 µM | > 200 µM | 28.7 µM |  |  | 
6 |  | COc1ccc(CC2COc3ccc(C)cc3C2=O)cc1 (stereo not given) | 76.3 µM | > 200 µM | > 100 µM |  |  | 
7 | 17.1 µM | COc1ccc2c(c1)C(=O)[C@@H](Cc1cc(O)cc(O)c1O)CO2 |  |  |  |  |  | 
8 |  | COc1ccc(CC2COc3ccccc3C2=O)c(OC)c1 (stereo not given) | 38.3 µM | > 200 µM | 61.9 µM |  |  | 
9 |  | COc1ccc(CC2COc3ccccc3C2=O)cc1OC (stereo not given) | > 100 µM | > 200 µM | > 100 µM |  |  | 
10 |  | COc1ccc(CC2COc3cc(C)ccc3C2=O)cc1 (stereo not given) | 68.3 µM | > 200 µM | 42.1 µM |  |  | 
11 |  | COc1ccc(C[C@@H]2COc3cc(OC)c(C)c(O)c3C2=O)c(O)c1 |  |  |  | 510 to 660 nM | 510 to 660 nM | 510 to 660 nM
12 |  | COc1ccc(CC2COc3ccccc3C2=O)c(OC)c1OC (stereo not given) | > 100 µM | > 200 µM | > 100 µM |  |  | 
13 |  | O=C1c2ccccc2OCC1Cc1ccc(F)cc1 (stereo not given) | > 200 µM | > 200 µM | > 200 µM |  |  | 
14 | 16.5 µM | O=C1c2cc(O)ccc2OC[C@@H]1Cc1cc(O)cc(O)c1O |  |  |  |  |  | 
15 |  | COc1ccc(CC2COc3ccccc3C2=O)cc1 (stereo not given) | > 100 µM | > 200 µM | > 100 µM |  |  | 
16 |  | COc1ccc(CC2COc3ccccc3C2=O)cc1O (stereo not given) | 20.4 µM | > 200 µM | > 100 µM |  |  | 
17 |  | COc1ccc(CC2COc3cccc(OC)c3C2=O)cc1O (stereo not given) | > 200 µM | > 200 µM | > 200 µM |  |  | 
18 |  | COc1ccc2c(c1)OCC(Cc1ccc(O)cc1)C2=O (stereo not given) | 50.4 µM | > 200 µM | 24.3 µM |  |  | 
